# From ChEMBL document CHEMBL1649471, “Nonhuman primates are protected from smallpox virus or monkeypox virus challenges by the antiviral drug ST-246” (2009)
# Activity calls are given as the source filed them. The rule behind the calls is not given here.
# Tests used:
# Variola virus [1] = assay: (§1) Antiviral activity against 1X10'8 PFU Variola virus Harper infected in cynomolgus monkey assessed as log decrease in blood viral load at 300 mg/kg/day, po administered 1 day post infection followed by 5 ml/kg of 30% suspension of hydrated homogenized monkey biscuit measured between day 5 to 8; type: functional
# Variola virus [2] = assay: (§2) Antiviral activity against 1X10'8 PFU Variola virus Harper infected in cynomolgus monkey assessed as percent hematocrit level in animal at 300 mg/kg/day, po administered 3 days post infection followed by 5 ml/kg of 30% suspension of hydrated homogenized monkey biscuit measured 9 days post infection; type: functional
# Variola virus [3] = assay: Antiviral activity against 1X10'8 PFU Variola virus Harper infected in cynomolgus monkey assessed as survival of animal at 300 mg/kg/day, po administered immediately post infection followed by 5 ml/kg of 30% suspension of hydrated homogenized monkey biscuit measured up to 28 days; type: functional, organism-based
# Variola virus [4] = assay: as §2, with “alanine amino transferase” for “percent hematocrit”, “1 day” for “3 days”, “11” for “9”; type: functional
# Variola virus [5] = assay: Antiviral activity against 1X10'8 PFU Variola virus Harper infected in cynomolgus monkey assessed as survival of animal at 300 mg/kg/day, po administered 1 day post infection followed by 5 ml/kg of 30% suspension of hydrated homogenized monkey biscuit measured up to 28 days; type: functional, organism-based
# Variola virus [6] = assay: (§3) Antiviral activity against 1X10'8 PFU Variola virus Harper infected in cynomolgus monkey assessed as creatinine level in animal at 300 mg/kg/day, po administered immediately after infection followed by 5 ml/kg of 30% suspension of hydrated homogenized monkey biscuit measured 11 days post infection; type: functional
# Variola virus [7] = assay: Antiviral activity against 1X10'8 PFU Variola virus Harper infected in cynomolgus monkey assessed as platelet count in animal at 300 mg/kg/day, po administered 3 days post infection followed by 5 ml/kg of 30% suspension of hydrated homogenized monkey biscuit measured 9 days post infection; type: functional
# Variola virus [8] = assay: as §1, with “inhibition of virus-mediated lesion formation” for “log decrease in blood viral load”; type: functional, organism-based
# Variola virus [9] = assay: (§4) Antiviral activity against 1X10'8 PFU Variola virus Harper infected in cynomolgus monkey assessed as platelet count in animal at 300 mg/kg/day, po administered 1 day post infection followed by 5 ml/kg of 30% suspension of hydrated homogenized monkey biscuit measured 11 days post infection; type: functional
# Monkeypox virus [10] = assay: Antiviral activity against Monkeypox virus Zaire '79 infected in cynomolgus monkey assessed as inhibition of virus induced skin lesions at 300 mg/kg/day, po administered 72 hrs post infection measured after 14 days; type: functional, organism-based
# Cynomolgus monkey [11] = assay: Immunostimulatory activity in cynomolgus monkey infected with 1X10'8 PFU Variola virus Harper assessed as level of IgM at 300 mg/kg/day, po followed by 5 ml/kg of 30% suspension of hydrated homogenized monkey biscuit measured on day 7 by ELISA; type: functional, organism-based; details: Macaca fascicularis
# Variola virus [12] = assay: Antiviral activity against 1X10'8 PFU Variola virus Harper infected in cynomolgus monkey assessed as blood urea nitrogen level in animal at 300 mg/kg/day, po administered 3 days post infection followed by 5 ml/kg of 30% suspension of hydrated homogenized monkey biscuit measured 9 days post infection; type: functional
# Variola virus [13] = assay: (§5) Antiviral activity against 1X10'8 PFU Variola virus Harper infected in cynomolgus monkey assessed as creatinine level in animal at 300 mg/kg/day, po administered 1 day post infection followed by 5 ml/kg of 30% suspension of hydrated homogenized monkey biscuit measured 9 days post infection; type: functional
# Variola virus [14] = assay: (§6) Antiviral activity against 1X10'8 PFU Variola virus Harper infected in cynomolgus monkey assessed as percent hematocrit level in animal at 300 mg/kg/day, po administered 1 day post infection followed by 5 ml/kg of 30% suspension of hydrated homogenized monkey biscuit measured 11 days post infection; type: functional
# Variola virus [15] = assay: Antiviral activity against 1X10'8 PFU Variola virus Harper infected in cynomolgus monkey assessed as platelet count in animal at 300 mg/kg/day, po administered 1 day post infection followed by 5 ml/kg of 30% suspension of hydrated homogenized monkey biscuit measured 9 days post infection; type: functional
# Monkeypox virus [16] = assay: Antiviral activity against Monkeypox virus Zaire '79 infected in cynomolgus monkey assessed as inhibition of virus induced skin lesions at 300 mg/kg/day, po administered 24 hrs post infection measured after 14 days; type: functional, organism-based
# Variola virus [17] = assay: Antiviral activity against 1X10'8 PFU Variola virus Harper infected in cynomolgus monkey assessed as total protein level in animal at 300 mg/kg/day, po administered 1 day post infection followed by 5 ml/kg of 30% suspension of hydrated homogenized monkey biscuit measured 11 days post infection; type: functional
# Variola virus [18] = assay: Antiviral activity against 1X10'8 PFU Variola virus Harper infected in cynomolgus monkey assessed as […] level in animal at 300 mg/kg/day, po administered 1 day post infection followed by 5 ml/kg of 30% suspension of hydrated homogenized monkey biscuit measured 11 days post infection; type: functional
# Variola virus [19] = assay: Antiviral activity against 1X10'8 PFU Variola virus Harper infected in cynomolgus monkey assessed as decrease in blood viral load at 300 mg/kg/day, po administered immediately post infection followed by 5 ml/kg of 30% suspension of hydrated homogenized monkey biscuit measured up to 28 days; type: functional, organism-based
# Variola virus [20] = assay: (§7) Antiviral activity against 1X10'8 PFU Variola virus Harper infected in cynomolgus monkey assessed as white blood cell count in animal at 300 mg/kg/day, po administered 1 day post infection followed by 5 ml/kg of 30% suspension of hydrated homogenized monkey biscuit measured 11 days post infection; type: functional
# Variola virus [21] = assay: Antiviral activity against 1X10'8 PFU Variola virus Harper infected in cynomolgus monkey assessed as platelet count in animal at 300 mg/kg/day, po administered immediately after infection followed by 5 ml/kg of 30% suspension of hydrated homogenized monkey biscuit measured 11 days post infection; type: functional
# Cynomolgus monkey [22] = assay: Immunostimulatory activity in cynomolgus monkey infected with 1X10'8 PFU Variola virus Harper assessed as level of IgG at 300 mg/kg/day, po followed by 5 ml/kg of 30% suspension of hydrated homogenized monkey biscuit measured on day 7 by ELISA; type: functional, organism-based; details: Macaca fascicularis
# Variola virus [23] = assay: Antiviral activity against 1X10'8 PFU Variola virus Harper infected in cynomolgus monkey assessed as temperature change in animal at 300 mg/kg/day, po administered immediately after infection followed by 5 ml/kg of 30% suspension of hydrated homogenized monkey biscuit measured 11 days post infection; type: functional
# Monkeypox virus [24] = assay: Antiviral activity against Monkeypox virus Zaire '79 infected in cynomolgus monkey assessed as survival of monkey at 300 mg/kg/day, po administered 24 hrs post infection followed by 5 ml/kg of 30% suspension of hydrated homogenized monkey biscuit measured after 14 days; type: functional, organism-based
# Variola virus [25] = assay: Antiviral activity against 1X10'8 PFU Variola virus Harper infected in cynomolgus monkey assessed as temperature change in animal at 300 mg/kg/day, po administered 1 day post infection followed by 5 ml/kg of 30% suspension of hydrated homogenized monkey biscuit measured 11 days post infection; type: functional
# Variola virus [26] = assay: as §6, with “aspartate amino transferase” for “percent hematocrit”; type: functional
# Variola virus [27] = assay: as §3, with “alanine amino transferase” for “creatinine”; type: functional
# Variola virus [28] = assay: (§8) Antiviral activity against 1X10'8 PFU Variola virus Harper infected in cynomolgus monkey assessed as log decrease in blood viral load at 300 mg/kg/day, po administered immediately post infection followed by 5 ml/kg of 30% suspension of hydrated homogenized monkey biscuit measured between day 5 to 8; type: functional
# Variola virus [29] = assay: as §3, with “blood urea nitrogen” for “creatinine”; type: functional
# Monkeypox virus [30] = assay: Antiviral activity against Monkeypox virus Zaire '79 infected in cynomolgus monkey assessed as survival of monkey at 300 mg/kg/day, po administered 72 hrs post infection followed by 5 ml/kg of 30% suspension of hydrated homogenized monkey biscuit measured after 14 days; type: functional, organism-based
# Variola virus [31] = assay: as §3, with “[…]” for “creatinine”; type: functional
# Variola virus [32] = assay: as §4, with “mean corpuscular hemoglobin concentration” for “platelet count”; type: functional
# Variola virus [33] = assay: as §5, with “mean corpuscular hemoglobin concentration” for “creatinine level”; type: functional
# Variola virus [34] = assay: as §3, with “mean corpuscular hemoglobin concentration” for “creatinine level”; type: functional
# Variola virus [35] = assay: Antiviral activity against 1X10'8 PFU Variola virus Harper infected in cynomolgus monkey assessed as albumin level in animal at 300 mg/kg/day, po administered 1 day post infection followed by 5 ml/kg of 30% suspension of hydrated homogenized monkey biscuit measured 11 days post infection; type: functional
# Variola virus [36] = assay: as §3, with “percent hematocrit” for “creatinine”; type: functional
# Variola virus [37] = assay: as §8, with “inhibition of virus-mediated lesion formation” for “log decrease in blood viral load”; type: functional, organism-based
# Variola virus [38] = assay: Antiviral activity against 1X10'8 PFU Variola virus Harper infected in cynomolgus monkey assessed as decrease in blood viral load at 300 mg/kg/day, po administered 1 day post infection followed by 5 ml/kg of 30% suspension of hydrated homogenized monkey biscuit measured up to 28 days; type: functional, organism-based
# Variola virus [39] = assay: as §3, with “total protein” for “creatinine”; type: functional
# Variola virus [40] = assay: Antiviral activity against 1X10'8 PFU Variola virus Harper infected in cynomolgus monkey assessed as blood urea nitrogen level in animal at 300 mg/kg/day, po administered 1 day post infection followed by 5 ml/kg of 30% suspension of hydrated homogenized monkey biscuit measured 11 days post infection; type: functional
# Monkeypox virus [41] = assay: Antiviral activity against Monkeypox virus Zaire '79 infected in cynomolgus monkey assessed as log decrease in viral load at 300 mg/kg/day, po administered 72 hrs post infection measured after 14 days; type: functional
# Variola virus [42] = assay: as §3, with “aspartate amino transferase” for “creatinine”; type: functional
# Variola virus [43] = assay: as §7, with “immediately after” for “1 day post”; type: functional
# Variola virus [44] = assay: Antiviral activity against 1X10'8 PFU Variola virus Harper infected in cynomolgus monkey assessed as white blood cell count in animal at 300 mg/kg/day, po administered 3 days post infection followed by 5 ml/kg of 30% suspension of hydrated homogenized monkey biscuit measured 9 days post infection; type: functional
# Variola virus [45] = assay: Antiviral activity against 1X10'8 PFU Variola virus Harper infected in cynomolgus monkey assessed as creatinine level in animal at 300 mg/kg/day, po administered 1 day post infection followed by 5 ml/kg of 30% suspension of hydrated homogenized monkey biscuit measured 11 days post infection; type: functional
# Variola virus [46] = assay: Antiviral activity against 1X10'8 PFU Variola virus Harper infected in cynomolgus monkey assessed as albumin level in animal at 300 mg/kg/day, po administered immediately after infection followed by 5 ml/kg of 30% suspension of hydrated homogenized monkey biscuit measured 11 days post infection; type: functional
# Monkeypox virus [47] = assay: Antiviral activity against Monkeypox virus Zaire '79 infected in cynomolgus monkey assessed as log decrease in viral load at 300 mg/kg/day, po administered 24 hrs post infection followed by 5 ml/kg of monkey biscuit measured after 14 days; type: functional
smiles,measurement,setting,value
O=C(NN1C(=O)[C@@H]2[C@@H]3C=C[C@@H]([C@H]4C[C@@H]34)[C@@H]2C1=O)c1ccc(C(F)(F)F)cc1 [TECOVIRIMAT],FC,Variola virus [1],3
same,Activity,Variola virus [2],35.9%
same,Activity,Variola virus [3],Active
same,Activity,Variola virus [4],60.3 U/L
same,Activity,Variola virus [5],Active
same,Activity,Variola virus [6],0.73 mg/dL
same,Activity,Variola virus [7],406 ×10³ /uL
same,inhibition,Variola virus [8],Active
same,Activity,Variola virus [9],341 ×10³ /uL
same,Activity,Monkeypox virus [10],Active
same,Activity,Cynomolgus monkey [11],Active
same,Activity,Variola virus [12],10.7 mg/dL
same,Activity,Variola virus [13],0.9 mg/dL
same,Activity,Variola virus [14],49.6%
same,Activity,Variola virus [15],350 ×10³ /uL
same,Activity,Monkeypox virus [16],Active
same,Activity,Variola virus [17],6.43 g/dL
same,Activity,Variola virus [18],141 U/L
same,Activity,Variola virus [19],Active
same,Activity,Variola virus [20],7.5 ×10³ /uL
same,Activity,Variola virus [21],329 ×10³ /uL
same,Activity,Cynomolgus monkey [22],Active
same,Activity,Variola virus [23],38 °C
same,Activity,Monkeypox virus [24],Active
same,Activity,Variola virus [25],37.3 °C
same,Activity,Variola virus [26],58 U/L
same,Activity,Variola virus [27],49.7 U/L
same,FC,Variola virus [28],3
same,Activity,Variola virus [29],19 mg/dL
same,Activity,Monkeypox virus [30],Active
same,Activity,Variola virus [31],277 U/L
same,Activity,Variola virus [32],31.1 g/dL
same,Activity,Variola virus [33],30.9 g/dL
same,Activity,Variola virus [34],31.7 g/dL
same,Activity,Variola virus [35],2.9 g/dL
same,Activity,Variola virus [36],44.3%
same,inhibition,Variola virus [37],Active
same,Activity,Variola virus [38],Active
same,Activity,Variola virus [39],6.37 g/dL
same,Activity,Variola virus [40],18.7 mg/dL
same,FC,Monkeypox virus [41],5
same,Activity,Variola virus [42],55 U/L
same,Activity,Variola virus [43],8.2 ×10³ /uL
same,Activity,Variola virus [44],12.3 ×10³ /uL
same,Activity,Variola virus [45],0.7 mg/dL
same,Activity,Variola virus [46],2.47 g/dL
same,FC,Monkeypox virus [47],5
